Results published in patent US10624948B2, “Use of cell-permeable peptide inhibitors of the JNK signal transduction pathway for the treatment of various diseases” (Xigen Inflammation Ltd., priority 2013, dated 2020).

Tests used:
[1] = system: Sprague-Dawley rats, STZ diabetic nephropathy; test: Rat model of diabetic nephropathy (STZ, high fat diet); type: in vivo; details: Losartan 25 mg/kg po daily
Description: Losartan has been used as a positive control. Seventy-four male Sprague-Dawley rats (200-250 g; including 4 spare animals) from Charles River (Margate, Kent) were used. Rats were housed in pairs in polypropylene cages with free access to a high fat diet (D12492 60% of kcal derived from fat) and tap water at all times. The diet has been purchased from Research Diets, New Jersey, USA. All animals have been maintained at 21±4° C. and 55±20% humidity on a normal light (lights on: 07:00-19:00). […] About 40 animals have been assigned to Cohort A and the remaining 30 to Cohort B, balanced as far as possible for body weight, plasma glucose and food and water intake. […] In all groups, food and water intake have been determined twice weekly (on the day of iv dosing and on water refill days. Blood glucose has been determined monthly. Samples were collected as detailed previously by glucometer (One Touch Ultra2). Blood samples have been taken in the freely fed state (beginning at approx. 09:00). Animals have been dosed immediately afterwards by the respective route to a timed schedule. Subsequent to dosing, each animal has been placed in a metabolism cage with free access to food and water for a 24 h period. To reduce evaporation, the glass urine collectors have been placed in a polystyrene container (Sca-online, UK) which was filled with ice. […] Food consumed and water drunk has also been calculated. […]

[2] = system: post-operative intraocular inflammation; details: Dexamethasone (N = 50)
Description: The objectives of the SDD-1002-035 study were to evaluate the efficacy and safety of a single sub-conjunctival injection of XG-102 90 or 900 μg administered within maximally 3 hours after the end of the surgical procedure compared to dexamethasone eye drops administered 4 times/day for 21 days in post-operative intraocular inflammation.
In accordance with this trial's primary objective, the primary outcome was evaluated by the mean anterior chamber cells grade at day 28 post-administration of the sub-conjunctival injection of study treatment comparing XG-102 900 μg with dexamethasone eye drops.
The present trial was a randomized (1:1:1), controlled, double-blind, multicenter non-inferiority clinical trial with three parallel groups of equal size. Randomization, which was blocked by center, was performed using a web-based, secure, randomization system. […]
The primary objective was evaluated by the mean anterior chamber cells grade at day 28 post-administration of the sub-conjunctival administration of study treatment. […]

[3] = Phase II trial, safety and tolerability (adverse events)
Description: The criteria for evaluation of safety were:
An AE is therefore any unfavorable and unintended sign, symptom or disease temporally associated with the use of a medicinal product, whether or not considered related to the medicinal product.
Patients were analyzed as treated, i.e. according to the treatment which they received. The safety set was the primary analysis set for the safety analysis.
The present study was a double-blind study. All patients who were randomized and for whom the sub-conjunctival injection was started are included in the safety analysis by dose group. […] If the study treatment eye drops were stopped prematurely (i.e. before day 21), the patients concerned continued follow-up until day 28, in accordance with the study protocol.
Investigators assessed (in a blinded manner) the relationship of each reported AE to any of the study treatments. An event was considered to be related to study treatment if the Investigator ticked either ‘possible’ or ‘probable’ as the reply to this question.

| Structure (SMILES) | body weight [1] | Premature withdrawal of study tx eye drops, # patients (%) [2] | Adverse events which led to an interruption of study treatment ([3]; Dexamethasone dose group) | patients with Intraocular pressure increased ([3]; dexamethasone) [%] | percentage of patients who experienced an AE within 24 hours ([3]; dexamethasone group) [%] |
| --- | --- | --- | --- | --- | --- |
| CCCCc1nc(Cl)c(CO)n1Cc1ccc(-c2ccccc2-c2nn[nH]n2)cc1 [Losartan] | significantly lower | – | – | – | – |
| C[C@@H]1C[C@H]2[C@@H]3CCC4=CC(=O)C=C[C@]4(C)[C@@]3(F)[C@@H](O)C[C@]2(C)[C@@]1(O)C(=O)CO [dexamethasone, reference compound] | – | 3 (6.0%) | 3 (5.5%) number of events (%) | 14 | 30 |
